Test results from US11576865B2, “Sustained-release dosage forms of ruxolitinib” (Incyte Corporation, priority 2012, dated 2023).

Assays:
[1] = system: patients with myelofibrosis (MF); assay: Phase 2 sustained-release clinical trial, haematology and adverse events; details: human, in vivo, 16 weeks
Description: A Phase 2 clinical trial was carried out in patients with myelofibrosis (MF). A total of 41 subjects were enrolled, and spleen volume and total symptom scores were obtained at baseline. Tablets of sustained-release formulation SR-2 (see Example 1) were administered to fasted patients. All patients were treated with 25 mg once daily doses for 8 weeks. After 8 weeks, depending upon the clinical response, the investigator was allowed to (a) maintain the same dose of SR-2, (b) increase the dose to 50 mg once daily, (c) increase the dose to alternating doses of 25 mg and 50 mg, dosed once daily, or (d) switch to treatment with the immediate release formulation.
Data relating to mean platelet count and mean hemoglobin levels (Hgb) is presented below in Table 3 together with comparative data from the COMFORT-I study. […] Data is shown as mean±SD.
Data for adverse events relating to anemia, thrombocytopenia, neutropenia, and all Grade 3 or higher adverse events are compared for the sustained-release and COMFORT-I (immediate-release) studies (see Example 3 and Comparative Example A for descriptions of the studies) in Table 6a. Adverse events are graded according to CTCAE criteria which can be found online at ctep.cancer.gov/protocolDevelopment/electronic_applications/ctc.htm or evs.nci.nih.gov/ftp1/CTCAE/CTCAE_4.03_2010-06-14_QuickReference_5×7.pdf. A Grade 3 adverse event generally corresponds to a reaction that is severe or medically significant, but not immediately life-threatening where hospitalization or prolongation of hospitalization is indicated and where the reaction is disabling to the extent of limiting self care. Higher Grades are 4 (life-threatening requiring urgent intervention) and 5 (death). For anemia, Grade 3 corresponds to Hgb<8.0 g/dL; <4.9 mmol/L; <80 g/L, where a transfusion is indicated. For thrombocytopenia (decreased platelet count), Grade 3 corresponds to <50,000-25,000/mm^3; <50.0-25.0×10^9/L. The sustained-release data was evaluated for patients over the course of 16 weeks. Mean duration of exposure to ruxolitinib in the COMFORT-I was approximately 242 days. Typically, the majority of hematologic adverse events occur within the first few months of therapy as observed in the COMFORT-I study.
The sustained-release data was evaluated for patients over the course of 16 weeks. Mean duration of exposure to ruxolitinib in the COMFORT-I study was approximately 242 days. The vast majority of hematologic adverse events occur within the first few months of therapy as observed in the COMFORT-I study. […] Additionally, the severity of the adverse events is lesser in the sustained-release study.

[2] = system: patients with intermediate-2 or high risk myelofibrosis; details: cited from earlier work
Myelofibrosis patients = details: COMFORT-II, 48 weeks (primary end point); cited from earlier work
[3] = cited from earlier work
[4] = system: patients with intermediate-2 or high risk myelofibrosis; details: cited from earlier work; remark: listed apart in the source
[5] = COMFORT I immediate-release, n 129
[6] = COMFORT I immediate-release, n 139
[7] = COMFORT I immediate-release, n 140
[8] = COMFORT I immediate-release, n 148
[9] = COMFORT I, immediate release, N = 155, maximum severity
[10] = COMFORT I, immediate release, N = 155, treatment-related, maximum severity
[11] = COMFORT I, immediate release, N = 155, treatment-related
[12] = COMFORT I, immediate release, N = 155
[13] = COMFORT I, mean exposure approximately 242 days
[14] = COMFORT-I Study (active), Week 12, mean total daily dose 30.4 mg, mean ± SD

## N#CC[C@H](C1CCCC1)n1cc(-c2ncnc3[nH]ccc23)cn1 [Ruxolitinib, (3R)-3-cyclopentyl-3-[4-(7H-pyrrolo[2,3-d]pyrimidin-4-yl)pyrazol-1-yl]propanenitrile]
[1]
  % of Subjects With Any Adverse Events, Any severity: (78.0) %
  % of Subjects with Anaemia, Any severity: (4.9) %
  % of Subjects with Blood and lymphatic system disorders, Any severity: (19.5) %
  % of Subjects with Thrombocytopenia, Any severity: (14.6) %
  Number of Subjects With Any Adverse Events, Any severity: 32
  Number of Subjects With Any Adverse Events, LT (life threatening): 0
  Number of Subjects With Any Adverse Events, Mi (mild): 16
  Number of Subjects With Any Adverse Events, Mo (moderate): 9
  Number of Subjects With Any Adverse Events, Se (severe): 7
  Number of Subjects with Anaemia, Any severity: 2
  Number of Subjects with Anaemia, LT (life threatening): 0
  Number of Subjects with Anaemia, Mi (mild): 0
  Number of Subjects with Anaemia, Mo (moderate): 2
  Number of Subjects with Anaemia, Se (severe): 0
  Number of Subjects with Blood and lymphatic system disorders, Any severity: 8
  Number of Subjects with Blood and lymphatic system disorders, LT (life threatening): 0
  Number of Subjects with Blood and lymphatic system disorders, Mi (mild): 3
  Number of Subjects with Blood and lymphatic system disorders, Mo (moderate): 4
  Number of Subjects with Blood and lymphatic system disorders, Se (severe): 1
  Number of Subjects with Thrombocytopenia, Any severity: 6
  Number of Subjects with Thrombocytopenia, LT (life threatening): 0
  Number of Subjects with Thrombocytopenia, Mi (mild): 3
  Number of Subjects with Thrombocytopenia, Mo (moderate): 2
  Number of Subjects with Thrombocytopenia, Se (severe): 1
[2]; [5]
  Total Symptom Score, Percent Change from Baseline To Week 24, Max: 108.3
  Total Symptom Score, Percent Change from Baseline To Week 24, Mean: −46.1
  Total Symptom Score, Percent Change from Baseline To Week 24, Median: −56.2
  Total Symptom Score, Percent Change from Baseline To Week 24, Min: −100.0
[2]; [6]
  Spleen Volume, Percent Change from Baseline To Week 24, Max: 25.1%
  Spleen Volume, Percent Change from Baseline To Week 24, Mean: −31.6%
  Spleen Volume, Percent Change from Baseline To Week 24, Median: −33.0%
  Spleen Volume, Percent Change from Baseline To Week 24, Min: −75.9%
[2]; [7]
  Total Symptom Score, Percent Change from Baseline To Week 16, Max: 292.5
  Total Symptom Score, Percent Change from Baseline To Week 16, Mean: −40.5
  Total Symptom Score, Percent Change from Baseline To Week 16, Median: −51.1
  Total Symptom Score, Percent Change from Baseline To Week 16, Min: −100.0
[2]; [8]
  Spleen Volume, Percent Change from Baseline To Week 12, Max: 3.8%
  Spleen Volume, Percent Change from Baseline To Week 12, Mean: −32.0%
  Spleen Volume, Percent Change from Baseline To Week 12, Median: −31.7%
  Spleen Volume, Percent Change from Baseline To Week 12, Min: −74.4%
[2]; COMFORT-I, baseline to week 24
  proportion of patients with a reduction of 50% or more in the total symptom score: 45.9%
[2]; COMFORT-I, week 24 (primary end point)
  proportion of patients with a reduction of 35% or more in spleen volume: 41.9%
Myelofibrosis patients
  patients with at least a 35% reduction in spleen volume from baseline: 28%
[3]; human, immediate-release, Shi et al.
  half-life: about 3 hours
[3]; oral
  Bioavailability: 70-80%
[4]; [9]
  Number of Subjects With Any Adverse Events, FT (fatal): 9
  Number of Subjects With Any Adverse Events, LT (life threatening): 9
  Number of Subjects With Any Adverse Events, Mi (mild): 20
  Number of Subjects With Any Adverse Events, Mo (moderate): 58
  Number of Subjects With Any Adverse Events, Se (severe): 55
[4]; [10]
  Number of Subjects with Anaemia, FT (fatal): 0
  Number of Subjects with Anaemia, LT (life threatening): 8
  Number of Subjects with Anaemia, Mi (mild): 4
  Number of Subjects with Anaemia, Mo (moderate): 20
  Number of Subjects with Anaemia, Se (severe): 16
  Number of Subjects with Blood and lymphatic system disorders, FT (fatal): 0
  Number of Subjects with Blood and lymphatic system disorders, LT (life threatening): 10
  Number of Subjects with Blood and lymphatic system disorders, Mi (mild): 20
  Number of Subjects with Blood and lymphatic system disorders, Mo (moderate): 28
  Number of Subjects with Blood and lymphatic system disorders, Se (severe): 27
  Number of Subjects with Thrombocytopenia, FT (fatal): 0
  Number of Subjects with Thrombocytopenia, LT (life threatening): 2
  Number of Subjects with Thrombocytopenia, Mi (mild): 21
  Number of Subjects with Thrombocytopenia, Mo (moderate): 19
  Number of Subjects with Thrombocytopenia, Se (severe): 11
[4]; [11]
  % of Subjects with Anaemia, Any severity: 31.0%
  % of Subjects with Blood and lymphatic system disorders, Any severity: 54.8%
  % of Subjects with Thrombocytopenia, Any severity: 34.2%
  Number of Subjects with Anaemia, Any severity: 48
  Number of Subjects with Blood and lymphatic system disorders, Any severity: 85
  Number of Subjects with Thrombocytopenia, Any severity: 53
[4]; [12]
  % of Subjects With Any Adverse Events, Any severity: 97.4%
  Number of Subjects With Any Adverse Events, Any severity: 151
[4]; [13]
  Percent of Patients with All ≥ Grade 3 Adverse Events: 47.1%
  Percent of Patients with Grade 3 or Higher Anemia: 15.5%
  Percent of Patients with Grade 3 or Higher Neutropenia: 1.3%
  Percent of Patients with Grade 3 or Higher Thrombocytopenia: 8.4%
[4]; [14]
  Mean change from baseline Hgb: -13.2 ± 15.5 g/L
  Mean change from baseline platelet count: −131 ± 143 ×10^9/L
